Test results taken from patent publication US12558386B2, “Methods and compositions to modulate antibiotic resistance and gastrointestinal microbiota” (OHIO STATE INNOVATION FOUNDATION, priority 2018, dated 2026).

Tests used:
[1] = system: poultry gut microbiota; experiment: Impact of ampicillin administration routes on poultry gut microbiota (FIG. 7); type: in vivo, chickens; settings: Day 25
Text: (A) NI-Saline-PO; (B) NI-Amp-IM; (C) NI-Amp-PO; (D) Amp-IM; (E) Amp-PO.
The impact of ampicillin administration routes and inoculation of Amp^r E. coli on poultry gut microbiota. FIG. 7A-B illustrates the impact of ampicillin application on gut microbiota of chickens. The data illustrated that without antibiotic application (FIG. 7A), Lactobacillus dominant, E. coli/Shegilla insignificant. […] The results clearly illustrated the major impact on oral ampicillin administration on poultry gut microbiota by diminishing Lactobacillus, increasing Clostridium, and massively increase […] due to Amp^r E. coli in inoculated chickens and Klebsiella in non-inoculated chickens.

[2] = system: E. coli CA-1; experiment: MIC assessment (TREK Sensititre); type: cell-based, Escherichia coli; settings: Escherichia coli, CA1; E. coli CA-1; read-out: MIC
Text: Bacterial strains. Multiple Amp^r strains from feces of broiler chickens without antibiotic treatment were recovered on Columbia blood Agar base (Becton, […] Dickinson and Company, Franklin Lakes, NJ) supplemented with 5% defibrinated sheep blood (Thermo Scientific™, Grand Island, NY).
Minimum inhibition concertation (MIC) assessment. A TREK Sensititre diagnostic system (Thermo scientific, Oakwood Village, OH, USA) was used to assess the AR phenotype and MIC of isolated strains. Protocols to use this system can be found on www.trekds.com. Cation-adjusted Mueller Hinton Broth (Becton, Dickinson and Company, MD, USA) was used as basic medium.

[3] = system: CG-12; experiment: Screening of antibiotic susceptible commensal strains on antibiotic agar plates; type: cell-based, Lactobacillus crispatus; settings: 16 μg/mL tetracycline, 100 μg/mL erythromycin, 32 μg/mL ampicillin, 152 μg/mL sulfamethoxazole with 8 μg/mL trimethoprim
Method: Multiple commensal bacterial strains from chicken feces were recovered from Columbia blood Agar base (Becton, […] Dickinson and Company, Franklin Lakes, NJ) supplemented with 5% defibrinated sheep blood (Thermo Scientific™, Grand Island, NY), and maintained in Columbia broth (Becton Dickinson and Company, Franklin Lakes, NJ) and propagated by anaerobic growth at 37° C. The strains were subjected to antibiotic susceptibility assessment followed by strain identification.
Screening of antibiotic susceptible commensal strains. Recovered commensal strain isolates (over 1000 colonies) were spotted on Columbia broth (Becton, […] Dickinson and Company, Franklin Lakes, NJ) agar plates containing each of the four antibiotics for rapid assessment of phenotypic resistance profiles. Screened antibiotics included 16 μg/mL tetracycline (Sigma-Aldrich, St. Louis, MO, USA), 100 μg/mL erythromycin (Fisher Scientific, Waltham, MA, USA), 32 μg/mL ampicillin (Sigma-Aldrich), and 152 μg/mL sulfamethoxazole (Sigma-Aldrich) with 8 μg/mL trimethoprim (Sigma-Aldrich).

[4] = system: Amp^r (ESBL) Escherichia coli strains M9-1, M9-4, M9-12 and 933-36; experiment: MIC of the Amp^r marker strains (previously identified); type: cell-based; settings: antibiotic not given

`CC1(C)S[C@@H]2[C@H](NC(=O)[C@H](N)c3ccccc3)C(=O)N2[C@H]1C(=O)O` [AMP, ampicillin] was tested, and the “change of gut microbiota” value ([1]; muscle injection, inoculated with E. coli cocktail (FIG. 7D)) was “Firmicutes still dominant but with which Lactobacillus drastically reduced”, the “change of gut microbiota” value ([1]; muscle injection, without inoculation of E. coli cocktail (FIG. 7B)) was “minimal changes” and the “change of gut microbiota” value ([1]; oral feeding, inoculated with E. coli cocktail (FIG. 7E)) was “Firmicutes changed from dominant to minority”. For the same molecule, the “change of gut microbiota” value ([1]; oral, without inoculation of E. coli cocktail (FIG. 7C)) was “decrease of Firmicutes (still dominant) and significant increase of Proteobacteria”, the MIC [2] was greater than 16 µg/mL and the “phenotypic susceptibility on antibiotic agar plates” value [3] was “susceptible”. It also gave an MIC [4] greater than 256 µg/mL.
